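A five-concentration, 48-hour dose response in 96-well plates underlies each endpoint, interpolated linearly between surrounding concentrations. TGI: total growth inhibition.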
What was measured:
Assay in all cases: DTP human tumour cell line panel, 48 h
ACHN renal = tested on: ACHN renal
HCC-2998 colon = tested on: HCC-2998 colon
SF-539 CNS = tested on: SF-539 CNS
RPMI-8226 leukemia = tested on: RPMI-8226 leukemia
COLO 205 colon = tested on: COLO 205 colon
SK-MEL-2 melanoma = tested on: SK-MEL-2 melanoma
SK-MEL-5 melanoma = tested on: SK-MEL-5 melanoma
HCT-15 colon = tested on: HCT-15 colon
HCT-116 colon = tested on: HCT-116 colon
HS 578T breast = tested on: HS 578T breast
NCI-H226 lung = tested on: NCI-H226 lung
UACC-257 melanoma = tested on: UACC-257 melanoma
UO-31 renal = tested on: UO-31 renal
UACC-62 melanoma = tested on: UACC-62 melanoma
SF-268 CNS = tested on: SF-268 CNS
MDA-MB-435 = tested on: MDA-MB-435
MDA-N = tested on: MDA-N
SK-MEL-28 melanoma = tested on: SK-MEL-28 melanoma
NCI-H23 lung = tested on: NCI-H23 lung
DU-145 prostate = tested on: DU-145 prostate
HOP-92 NSCLC = tested on: HOP-92 NSCLC
786-0 renal = tested on: 786-0 renal
HT29 colon = tested on: HT29 colon
MCF7 breast = tested on: MCF7 breast
RXF 393 renal = tested on: RXF 393 renal
SNB-75 CNS = tested on: SNB-75 CNS
SN12C renal = tested on: SN12C renal
M14 melanoma = tested on: M14 melanoma
A549 NSCLC = tested on: A549 NSCLC
NCI-H460 lung = tested on: NCI-H460 lung
A498 renal = tested on: A498 renal
CAKI-1 renal = tested on: CAKI-1 renal
OVCAR-4 ovarian = tested on: OVCAR-4 ovarian
IGROV1 ovarian = tested on: IGROV1 ovarian
KM12 colon = tested on: KM12 colon
EKVX NSCLC = tested on: EKVX NSCLC
NCI/ADR-RES ovarian = tested on: NCI/ADR-RES ovarian
K-562 leukemia = tested on: K-562 leukemia
OVCAR-8 ovarian = tested on: OVCAR-8 ovarian
OVCAR-5 ovarian = tested on: OVCAR-5 ovarian
MOLT-4 leukemia = tested on: MOLT-4 leukemia
MALME-3M melanoma = tested on: MALME-3M melanoma
OVCAR-3 ovarian = tested on: OVCAR-3 ovarian
SR leukemia = tested on: SR leukemia
HOP-62 NSCLC = tested on: HOP-62 NSCLC
SW-620 colon = tested on: SW-620 colon
TK-10 renal = tested on: TK-10 renal
MDA-MB-231 breast = tested on: MDA-MB-231 breast
SNB-19 CNS = tested on: SNB-19 CNS
PC-3 prostate = tested on: PC-3 prostate
HL-60(TB) leukemia = tested on: HL-60(TB) leukemia
T-47D breast = tested on: T-47D breast
SF-295 CNS = tested on: SF-295 CNS
LOX IMVI melanoma = tested on: LOX IMVI melanoma
SK-OV-3 ovarian = tested on: SK-OV-3 ovarian
NCI-H522 lung = tested on: NCI-H522 lung
U251 CNS = tested on: U251 CNS

C[C@H]1C[C@H](C)c2ccccc2N(C)C1=Nc1ccccc1
TGI (ACHN renal): > 100 µM
TGI (HCC-2998 colon): > 100 µM
TGI (SF-539 CNS): > 100 µM
TGI (RPMI-8226 leukemia): > 100 µM
TGI (COLO 205 colon): 49.7 µM
TGI (SK-MEL-2 melanoma): 44.2 µM
TGI (SK-MEL-5 melanoma): 31.3 µM
TGI (HCT-15 colon): > 100 µM
TGI (HCT-116 colon): 46.3 µM
TGI (HS 578T breast): > 100 µM
TGI (NCI-H226 lung): 83.6 µM
TGI (UACC-257 melanoma): 48.2 µM
TGI (UO-31 renal): > 100 µM
TGI (UACC-62 melanoma): > 100 µM
TGI (SF-268 CNS): > 100 µM
TGI (MDA-MB-435): 52.8 µM
TGI (MDA-N): 68.7 µM
TGI (SK-MEL-28 melanoma): > 100 µM
TGI (NCI-H23 lung): 50 µM
TGI (DU-145 prostate): > 100 µM
TGI (HOP-92 NSCLC): 40.1 µM
TGI (786-0 renal): 64 µM
TGI (HT29 colon): 23.3 µM
TGI (MCF7 breast): > 100 µM
TGI (RXF 393 renal): 92.2 µM
TGI (SNB-75 CNS): > 100 µM
TGI (SN12C renal): > 100 µM
TGI (M14 melanoma): 56.2 µM
TGI (A549 NSCLC): > 100 µM
TGI (NCI-H460 lung): 64.4 µM
TGI (A498 renal): 84.4 µM
TGI (CAKI-1 renal): > 100 µM
TGI (OVCAR-4 ovarian): > 100 µM
TGI (IGROV1 ovarian): 78 µM
TGI (KM12 colon): > 100 µM
TGI (EKVX NSCLC): > 100 µM
TGI (NCI/ADR-RES ovarian): > 100 µM
TGI (K-562 leukemia): > 100 µM
TGI (OVCAR-8 ovarian): > 100 µM
TGI (OVCAR-5 ovarian): 78 µM
TGI (MOLT-4 leukemia): 72.7 µM
TGI (MALME-3M melanoma): 71.4 µM
TGI (OVCAR-3 ovarian): 80 µM
TGI (SR leukemia): 58.3 µM
TGI (HOP-62 NSCLC): > 100 µM
TGI (SW-620 colon): > 100 µM
TGI (TK-10 renal): 55.6 µM
TGI (MDA-MB-231 breast): 41.4 µM
TGI (SNB-19 CNS): > 100 µM
TGI (PC-3 prostate): > 100 µM
TGI (HL-60(TB) leukemia): 48.3 µM
TGI (T-47D breast): > 100 µM
TGI (SF-295 CNS): > 100 µM
TGI (LOX IMVI melanoma): 31.7 µM

CSC1=N/C(=C\c2ccco2)C(=O)N1CN1CCCCC1
TGI (ACHN renal): > 100 µM
TGI (RPMI-8226 leukemia): > 100 µM
TGI (COLO 205 colon): > 100 µM
TGI (SK-MEL-2 melanoma): > 100 µM
TGI (SK-MEL-5 melanoma): > 100 µM
TGI (HCT-15 colon): > 100 µM
TGI (HCT-116 colon): > 100 µM
TGI (HS 578T breast): > 100 µM
TGI (SK-OV-3 ovarian): > 100 µM
TGI (NCI-H226 lung): > 100 µM
TGI (UO-31 renal): > 100 µM
TGI (UACC-62 melanoma): > 100 µM
TGI (SF-268 CNS): > 100 µM
TGI (MDA-MB-435): > 100 µM
TGI (MDA-N): > 100 µM
TGI (SK-MEL-28 melanoma): > 100 µM
TGI (NCI-H23 lung): > 100 µM
TGI (DU-145 prostate): > 100 µM
TGI (HOP-92 NSCLC): 87.2 µM
TGI (NCI-H522 lung): > 100 µM
TGI (786-0 renal): > 100 µM
TGI (HT29 colon): > 100 µM
TGI (MCF7 breast): > 100 µM
TGI (SNB-75 CNS): > 100 µM
TGI (SN12C renal): > 100 µM
TGI (M14 melanoma): > 100 µM
TGI (A549 NSCLC): > 100 µM
TGI (A498 renal): > 100 µM
TGI (IGROV1 ovarian): > 100 µM
TGI (KM12 colon): > 100 µM
TGI (U251 CNS): > 100 µM
TGI (EKVX NSCLC): > 100 µM
TGI (NCI/ADR-RES ovarian): > 100 µM
TGI (K-562 leukemia): > 100 µM
TGI (OVCAR-8 ovarian): > 100 µM
TGI (OVCAR-5 ovarian): > 100 µM
TGI (MOLT-4 leukemia): > 100 µM
TGI (MALME-3M melanoma): > 100 µM
TGI (OVCAR-3 ovarian): > 100 µM
TGI (SR leukemia): > 100 µM
TGI (HOP-62 NSCLC): > 100 µM
TGI (SW-620 colon): > 100 µM
TGI (TK-10 renal): > 100 µM
TGI (MDA-MB-231 breast): > 100 µM
TGI (SNB-19 CNS): > 100 µM
TGI (PC-3 prostate): > 100 µM
TGI (SF-295 CNS): > 100 µM
TGI (LOX IMVI melanoma): > 100 µM
